# Results from the NIST ThermoML archive (doi:10.1016/j.jct.2015.06.017).
# Numbers after ± are expanded uncertainties.
# Conditions: Liquid, Closed cell (Static) method
structure (smiles),measurement,setting,value
C=CC [propene],vapor or sublimation pressure,282.97 K,769 ± 8 kPa
same,vapor or sublimation pressure,287.57 K,873 ± 8 kPa
same,vapor or sublimation pressure,293.48 K,1028 ± 8 kPa
same,vapor or sublimation pressure,298.02 K,1152 ± 8 kPa
same,vapor or sublimation pressure,302.83 K,1291 ± 9 kPa
same,vapor or sublimation pressure,307.67 K,1458 ± 9 kPa
same,vapor or sublimation pressure,314.06 K,1691 ± 9 kPa
same,vapor or sublimation pressure,318.36 K,1854 ± 9 kPa
same,vapor or sublimation pressure,322.91 K,2039 ± 9 kPa
same,vapor or sublimation pressure,327.27 K,2239 ± 9 kPa
